Test results reported in patent US20100168150A1, “Camptothecin Analogue Compounds, a Process for Their Preparation and Pharmaceutical Compositions Containing Them” (Les Laboratoires Servier, priority 2005, published 2010).
Where a name gives a salt, the structure may show the parent alone.

Legend:
murine leukaemia L1210 = assay: In vitro cytotoxicity, Microculture Tetrazolium Assay, L1210; assay type: cell-based; settings: L1210 cells, 48 hours exposure, inhibition of proliferation
Method: (§1) The murine leukaemia L1210 and the human colon carcinomas HCT116 and HT29 were used in vitro. The cells are cultured in RPMI 1640 complete culture medium containing 10% foetal calf serum, 2 mM glutamine, 50 units/ml of penicillin, 50 μg/ml of streptomycin and 10 mM Hepes, pH=7.4. The cells are distributed on microplates and are exposed to the cytotoxic compounds for 4 doubling times, that is to say 48 hours (L1210) or 96 hours (HCT116 and HT29). The number of viable cells is then quantified by a colorimetric assay, the Microculture Tetrazolium Assay (J. Carmichael et al., Cancer Res.; 47, 936-942, (1987)). The results are expressed in terms of the IC50 (the concentration of cytotoxic agent which inhibits proliferation of the treated cells by 50%).

[1] = system: human colon carcinoma HT29; assay: In vitro cytotoxicity, Microculture Tetrazolium Assay, HT29; assay type: cell-based; settings: HT29 cells, 96 hours exposure, inhibition of proliferation
Method: as §1

[2] = system: human colon carcinoma HCT116; assay: In vitro cytotoxicity, Microculture Tetrazolium Assay, HCT116; assay type: cell-based; settings: HCT116 cells, 96 hours exposure, inhibition of proliferation
Method: as §1

[3] = In vivo toxicity, maximum tolerated dose; settings: nude (bab/c), mouse, in vivo; nude mice, intravenous administration once per week for 3 weeks; largest dose causing neither death nor weight loss of more than 20%
Method: (§2) The compounds are formulated in a Tween/water mixture and administered by the intravenous (i.v.) route (administration over three weeks at the rate of once per week, the injection volume being 0.2 ml/mouse with increasing doses of compounds of 6.25, 12.5, 25 and 50 mg/kg) to nude mice (bab/c supplied by Iffa Credo) weighing about 20 g. The maximum tolerated dose (MTD) is the largest dose causing neither death nor a weight loss of more than 20%.

nude mice = assay: In vivo toxicity, maximum tolerated dose; settings: i.v. once per week for 3 weeks, compared with compound of Preparation 2
Method: as §2

HCT116 = assay: In vivo activity with respect to HCT116; settings: compared with non-esterified homologue (compound of Preparation 2)

Row | SMILES | IC50 (murine leukaemia L1210; Mus musculus) [nM] | IC50 ([1]; Homo sapiens, HT-29) [nM] | IC50 ([2]; Homo sapiens, HCT-116) [nM] | also measured
1 | CCC1(OC(=O)CCN2CCCCC2)C(=O)Cc2c1cc1n(c2=O)Cc2c-1nc1cc3c(cc1c2C)OCO3 (stereo not drawn) [Example 1, 7-Ethyl-2,3-methylenedioxy-13-methyl-8,10-dioxo-8,9,10,12-tetrahydro-7H-cyclopenta[6,7]indolizino[1,2-b]quinolin-7-yl 3-piperidinopropanoate hydrochloride] | 4.2 |  |  | 
2 | CCC1(OC(=O)CCN2CC[C@H]3CCCC[C@@H]3C2)C(=O)Cc2c1cc1n(c2=O)Cc2c-1nc1cc3c(cc1c2C1CCC1)OCO3 (stereo partly drawn) [Example 23, 7-Ethyl-2,3-methylenedioxy-13-cyclobutyl-8,10-dioxo-8,9,10,12-tetrahydro-7H-cyclopenta[6,7]indolizino[1,2-b]quinolin-7-yl 3-[(4aR,8aS)-octahydroisoquinolin-2(1H)-yl]propanoate hydrochloride] | 7.3 | 2.4 | 1.1 | 
3 | CCC1(OC(=O)CCN2CCCCC2)C(=O)Cc2c1cc1n(c2=O)Cc2c-1nc1cc3c(cc1c2C1CCC1)OCO3.Cl (stereo not drawn) [Example 2, 7-Ethyl-2,3-methylenedioxy-13-cyclobutyl-8,10-dioxo-8,9,10,12-tetrahydro-7H-cyclopenta[6,7]indolizino[1,2-b]quinolin-7-yl 3-piperidinopropanoate hydrochloride] |  | 3.7 | 1.5 | MTD at 3 weeks [3]: 25 mg/kg; toxicity relative to the non-esterified homologue (compound of Preparation 2) (nude mice): two times less toxic; in vivo activity with respect to HCT116 compared with compound of Preparation 2 (HCT116): same in vivo activity
4 | CCC1(OC(=O)CCN2CCc3cc(OC)c(OC)cc3C2)C(=O)Cc2c1cc1n(c2=O)Cc2c-1nc1cc3c(cc1c2C1CCC1)OCO3 (stereo not drawn) [Example 24, 7-Ethyl-2,3-methylenedioxy-13-cyclobutyl-8,10-dioxo-8,9,10,12-tetrahydro-7H-cyclopenta[6,7]indolizino[1,2-b]quinolin-7-yl 3-[(6,7-dimethoxy-3,4-dihydroisoquinolin-2(1H)-yl]propanoate hydrochloride] |  |  |  | IC50 [1]: 2.6 nM; IC50 (murine leukaemia L1210): 7.9 nM; IC50 [2]: 0.7 nM
